From PMC4510645, “Discovery of intramolecular trans-sialidases in human gut microbiota suggests novel mechanisms of mucosal adaptation” (Nature Communications, 2015)
“And” between values parts separate entries of the source, which are not always exact repeats. Equal values may be shown once. Read-outs that look alike come from different tables or passages of the source.

Tests used:
RgNanH [1] = target: T1, RgNanH (Mediterraneibacter gnavus (Ruminococcus gnavus), UniProt A7B557); assay: Inhibition of RgNanH activity against 4MU-Neu5Ac by neuraminidase inhibitors; assay type: biochemical, Ruminococcus gnavus ATCC 29149; conditions: for LogIC50 / IC50: 4MU-Neu5Ac 0.51 mM, pre-incubated 15 min at 37 °C, pH 6.5
T1 sequence (A7B557 26-723): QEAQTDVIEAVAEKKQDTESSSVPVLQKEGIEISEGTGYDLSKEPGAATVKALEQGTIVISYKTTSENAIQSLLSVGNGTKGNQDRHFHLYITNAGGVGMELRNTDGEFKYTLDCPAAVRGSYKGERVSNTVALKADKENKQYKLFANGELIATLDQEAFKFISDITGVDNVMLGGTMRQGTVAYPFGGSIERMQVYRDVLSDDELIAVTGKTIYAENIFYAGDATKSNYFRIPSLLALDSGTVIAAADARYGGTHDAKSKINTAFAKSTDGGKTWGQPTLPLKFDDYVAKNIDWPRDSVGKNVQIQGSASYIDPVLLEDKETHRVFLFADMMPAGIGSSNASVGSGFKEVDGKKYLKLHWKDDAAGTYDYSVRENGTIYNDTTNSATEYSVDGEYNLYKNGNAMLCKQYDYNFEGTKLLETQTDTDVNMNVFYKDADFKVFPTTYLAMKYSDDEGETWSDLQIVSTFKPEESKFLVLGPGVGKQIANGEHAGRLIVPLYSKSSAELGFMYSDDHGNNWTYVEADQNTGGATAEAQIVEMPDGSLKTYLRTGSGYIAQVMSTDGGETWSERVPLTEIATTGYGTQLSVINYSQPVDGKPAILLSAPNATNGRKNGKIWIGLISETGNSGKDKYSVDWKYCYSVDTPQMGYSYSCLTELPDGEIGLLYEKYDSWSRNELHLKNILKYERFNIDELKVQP
Experimental: Figure 1 Kinetic analysis of the hydrolysis of sialylated substrates by RgNanH in presence or absence of inhibitors. Substrate (a) 4MU-Neu5Ac or (b) PNP-Neu5Ac was incubated with RgNanH ([…] and 0.43 nM, respectively) at 37 °C, pH 6.5 and the release of product measured using a plate reader. (c) Inhibition of RgNanH (1.00 nM) incubated with 4MU-Neu5Ac (0.51 mM) by zanamivir (●), Neu5Ac2en (▪), siastatin B (▴) and OC (♦), the rates are normalized to a % of the uninhibited rate. [I] is the inhibitor concentration. (d) 3′SL was incubated with RgNanH (2.25 nM) and the release of product measured by HPAEC-PAD. Experiments were done at least in duplicate (usually triplicate) and the error bars show the s.e.m.
The purified enzymes were incubated with the substrate in buffer made from 20 mM Na2HPO4 and 20 mM NaH2PO4 adjusted to pH 6.5 containing 1 mg ml^−1 BSA at 37 °C unless otherwise stated. For 4MU-Neu5Ac, the progression of the reaction was monitored by the release of the MU using a 96-well plate reader (BMG Labtech, Ortenberg, Germany) using fluorescence with an excitation at 340 nm and an emission at 420 nm. For determining the optimal temperature, the assay was carried out in 20 mM PBS at pH 7.4. For determining the optimal pH, the assay was carried out at 37 °C using buffer made from 20 mM Na2HPO4 and 20 mM NaH2PO4 in varying proportions to obtain the desired pH. PNP release from PNP-Neu5Ac was monitored in a similar way measuring absorbance at 405 nm every 60 s. For 3′SL, the reaction was monitored by HPAEC-PAD. An aliquot of the reaction was removed from the main reaction volume at the reaction stopped by boiling for 20 min, the enzyme was then removed by centrifugation at 17,000g for 10 min and filtration with a 0.2-μm filter (Millipore, Billerica, USA). The sugars were separated by HPAEC with an isocratic gradient of 100 mM NaOH and 100 mM NaAC at 1 ml min^−1 on a CarboPac PA1 protected with a guard column and detected using PAD on a Dionex ICS5000 system (Thermo Scientific, Hemel Hempstead, UK). The column was cleaned with 10 ml of 500 mM NaOH and 500 mM NaAc, and the column was re-equilibrated with 100 mM NaOH and 100 mM NaAc. An internal standard of fucose was used to quantify the results. […]

[2] = system: AkmNan0625 and AkmNan1835; assay: Specificity against sialyl-oligosaccharides, HPAEC-PAD (control sialidases); assay type: biochemical, Akkermansia muciniphila; design: key to Activity AkmNan0625 and AkmNan1835: +: Activity was defined as disappearance of the substrate peak and appearance of a lower-molecular weight peak, which could correspond to the desialylated substrate; conditions: substrate 1 mM, 1 nM enzyme, 37 °C, pH 6.5, overnight
Experimental: (§1) Figure 2 Specificity of RgNanH towards sialylated oligosaccharides. The enzymes were incubated with sialylated substrates at 37 °C, pH 6.5, overnight and the reaction products were analysed by HPAEC-PAD. Control reactions without enzyme were also performed. The injection peak is marked (inj). Glycerol (gly) was also present in AkmNan0625. (a) Standards (Lac, Neu5Ac, 3′SL and 6′SL), (b) 3′SL, (c) 6′SL and (d) 3'-α-sialyl-N-acetyllactosamine (3′SLacNAc). AkmNan1835 has a similar profile to […].
All chemicals were obtained from Sigma (St Louis, USA) unless otherwise stated. The A. muciniphila sialidases, termed here AkmNan0625 and AkmNan1835, were obtained by His-Tag overexpression of their genes (Amuc_0625 and Amuc_1835, respectively)[56] in E. coli BL21(DE3) and subsequent purification to homogeneity by immobilized metal affinity chromatography as described below. The sialylated oligosaccharides and OC were obtained from Carbosynth (Berks, UK).
(§2) The purified enzymes were incubated with the substrate in buffer made from 20 mM Na2HPO4 and 20 mM NaH2PO4 adjusted to pH 6.5 containing 1 mg ml^−1 BSA at 37 °C unless otherwise stated. For 4MU-Neu5Ac, the progression of the reaction was monitored by the release of the MU using a 96-well plate reader (BMG Labtech, Ortenberg, Germany) using fluorescence with an excitation at 340 nm and an emission at 420 nm. For determining the optimal temperature, the assay was carried out in 20 mM PBS at pH 7.4. For determining the optimal pH, the assay was carried out at 37 °C using buffer made from 20 mM Na2HPO4 and 20 mM NaH2PO4 in varying proportions to obtain the desired pH. PNP release from PNP-Neu5Ac was monitored in a similar way measuring absorbance at 405 nm every 60 s. For 3′SL, the reaction was monitored by HPAEC-PAD. An aliquot of the reaction was removed from the main reaction volume at the reaction stopped by boiling for 20 min, the enzyme was then removed by centrifugation at 17,000g for 10 min and filtration with a 0.2-μm filter (Millipore, Billerica, USA). The sugars were separated by HPAEC with an isocratic gradient of 100 mM NaOH and 100 mM NaAC at 1 ml min^−1 on a CarboPac PA1 protected with a guard column and detected using PAD on a Dionex ICS5000 system (Thermo Scientific, Hemel Hempstead, UK). The column was cleaned with 10 ml of 500 mM NaOH and 500 mM NaAc, and the column was re-equilibrated with 100 mM NaOH and 100 mM NaAc. An internal standard of fucose was used to quantify the results.
(§3) For specificity tests against sialylated oligosaccharides (1 mM) and glycoproteins (1 mg ml^−1), 1 nM of enzyme was incubated with the substrate at 37 °C, pH 6.5, overnight.

RgNanH [3] = target: T1, RgNanH; assay: Specificity against sialyl-oligosaccharides, HPAEC-PAD; assay type: biochemical, Ruminococcus gnavus ATCC 29149; design: key to Activity RgNanH: +: Activity was defined as disappearance of the substrate peak and appearance of a lower-molecular weight peak, which could correspond to the desialylated substrate; conditions: substrate 1 mM, 1 nM enzyme, 37 °C, pH 6.5, overnight
Experimental: as §1, §2, §3

RgNanH [4] = target: T1, RgNanH; assay: Kinetic parameters of RgNanH with sialylated substrates; assay type: biochemical, Ruminococcus gnavus ATCC 29149; conditions: pH 6.5, 37 °C
Experimental: as §2
For 4MU-Neu5Ac and 3′SL, the rate of hydrolysis without enzyme was not significant, thus raw data were used. However, for pNP-Neu5Ac, the rate of hydrolysis without enzyme was significant, thus the rate with enzyme was corrected by the subtraction of the rate without enzyme at each concentration of substrate. For 3′SL, the rate of reaction was calculated by plotting the amount of substrate remaining over the course of >50 % of the reaction using the following equation[58]: […]
Where k is kcat/KM × enzyme concentration, t is time, [S0] and [St] are substrate concentrations at time 0 and t, respectively.
Kinetic data were obtained from at least duplicate (usually triplicate) experiments, and the kinetic parameters were calculated by fitting the initial raw data to the Michaelis–Menten equation using a nonlinear regression analysis programme (Prism 6, GraphPad, San Diego, USA), and error bars (s.e.m.) are shown.

Compound | LogIC50 (RgNanH [1]; RgNanH 1.00 nM) | IC50 (RgNanH [1]; RgNanH 1.00 nM, read-out: IC50) | Activity AkmNan0625 and AkmNan1835 [2] | Activity RgNanH (RgNanH [3]) | further results
CCC(CC)O[C@@H]1C=C(C(=O)O)C[C@H](N)[C@H]1NC(C)=O [Oseltamivir carboxylate] | −1.53±0.02 | 0.0296 mM |  |  | improvement in inhibition of RgNanH (RgNanH [1]; compared with Neu5Ac2en (IC50: 1.4 mM to 30 μM)): ~50 fold
CC(=O)N[C@H]1[C@H]([C@H](O)[C@H](O)CO)OC(C(=O)O)=C[C@@H]1N=C(N)N [Zanamivir, 4-guanidino-Neu5Ac2en] | 1.08±0.07 | 11.9 mM |  |  | IC50 (RgNanH [1]; IC50, RgNanH 1.00 nM): ~12 mM
CC(=O)N[C@H]1[C@H]([C@H](O)[C@H](O)CO)O[C@@](O[C@H]2[C@@H](O)[C@@H](CO)O[C@@H](O[C@H]3[C@H](O[C@@H]4O[C@@H](C)[C@@H](O)[C@@H](O)[C@@H]4O)[C@@H](O)C(O)O[C@@H]3CO)[C@@H]2O)(C(=O)O)C[C@@H]1O (stereo partly drawn) [3′-Sialyl-3-fucosyllactose, Neu5Ac-α-2-3-Gal-β1-4-[Fuc-α-1-3]-Glc] |  |  | + | + | 
Neu5Ac-α-2-6-Gal-β-1-4-GlcNAc [6′-α-Sialyl-N-acetyllactosamine] |  |  | + |  | 
CC(=O)N[C@H]1NC[C@H](C(=O)O)[C@H](O)[C@@H]1O [Siastatin B] | −2.31±0.02 | 0.00487 mM |  |  | 
CC(=O)N[C@H]1[C@H]([C@H](O)[C@H](O)CO)OC(OC[C@H]2OC(O)[C@H](O)[C@@H](O)[C@H]2O)(C(=O)O)C[C@@H]1O (stereo partly drawn) [6′-Sialylgalactose, Neu5Ac-α-2-6-Gal] |  |  | + |  | 
CO[C@@H]1O[C@H](CO)[C@@H](O[C@@H]2O[C@H](CO)[C@H](O)[C@H](O[C@]3(C(=O)O)C[C@H](O)[C@@H](NC(C)=O)[C@H]([C@H](O)[C@H](O)CO)O3)[C@H]2O)[C@H](O[C@@H]2O[C@@H](C)[C@@H](O)[C@@H](O)[C@@H]2O)[C@H]1NC(C)=O [3′-Sialyl Lewis X methyl glycoside, Neu5Ac-α-2-3-Gal-β-1-4-[Fuc-a-1-3]-GlcNAc-β-OMe] |  |  | + | + | 
CC(=O)NC1C(O)CC(OC2C(O)C(O)OC(CO)C2O)(C(=O)O)OC1C(O)C(O)CO (stereo not drawn) [3′-Sialylgalactose, Neu5Ac-α-2-3-Gal] |  |  | + | + | 
CC(=O)N[C@H]1[C@H]([C@H](O)[C@H](O)CO)OC(C(=O)O)=C[C@@H]1O [Neu5Ac2en, 2-deoxy-2,3-didehydro-D-N-acetylneuraminic acid] | 0.15±0.04 | 1.4 mM and 1.41 mM |  |  | 
CC(=O)N[C@H]1[C@H]([C@H](O)[C@H](O)CO)O[C@@](O[C@H]2[C@@H](O)[C@@H](CO)O[C@@H](O[C@H]3[C@H](O[C@@H]4O[C@@H](C)[C@@H](O)[C@@H](O)[C@@H]4O)[C@@H](NC(C)=O)C(O)O[C@@H]3CO)[C@@H]2O)(C(=O)O)C[C@@H]1O (stereo partly drawn) [3′-Sialyl Lewis X, Neu5Ac-α-2-3-Gal-β-1-4-[Fuc-a-1-3]-GlcNAc] |  |  | + | + | 
CC(=O)N[C@H]1[C@H]([C@H](O)[C@H](O)CO)O[C@@](Oc2ccc([N+](=O)[O-])cc2)(C(=O)O)C[C@@H]1O [PNP-Neu5Ac, 2-O-(p-nitrophenyl)-α-D-N-acetylneuraminic acid] |  |  |  |  | kcat (RgNanH [4]; substrate of RgNanH): <152 ^* min^−1; Km (RgNanH [4]; substrate of RgNanH, s.e.m.): > 25000 µM
CC(=O)N[C@@H]1[C@@H](O)C[C@](Oc2ccc3c(C)cc(=O)oc3c2)(C(=O)O)O[C@H]1C(O)[C@H](O)CO (stereo partly drawn) [4MU-Neu5Ac, 2′-(4-methylumbelliferyl)-α-D-N-acetylneuraminic acid] |  |  |  |  | Ki (RgNanH [4]; substrate inhibition, s.e.m.): 2.37 ± 0.65 mM; kcat (RgNanH [4]; substrate of RgNanH): 6210 min⁻¹; Km (RgNanH [4]; substrate of RgNanH, s.e.m.): 590 ± 170 µM; Vmax (RgNanH [4]; substrate of RgNanH, s.e.m.): 1.37 ± 0.23 µM/min
